This data set in a line: Human HepG2 cell viability assay in 384 well format. The format is toxicity, cell-based. On the set-up: dose 125 nL, time 70.5 hour; concentration not given beside the values. To be noted: HepG2 cells, read-out: Inhibition.
As to `CC(=O)c1cn(CC(=O)N[C@H](C(=O)O)C(C)C)c2ccccc12`, the cytotoxicity at 70.5 h is -13.5%. In the case of `Cc1cnc(N2C[C@H]3CCCC(N(C)Cc4ccccn4)[C@H]3C2)nc1` (some centres not stated) it was -9.85%. For `CCOC(=O)[C@]12CCCN(Cc3cccs3)C[C@H]1CN(C(C)=O)C2`, the cytotoxicity at 70.5 h was -1.84%.

For `c1cnc(N2CCOCC3(CN(Cc4ccsc4)CCO3)C2)nc1` (configuration not stated), the cytotoxicity at 70.5 h was -3.74%. In the case of `CNC(=O)CN(C)c1nc(-c2ccncc2)nc2c1CCN(C(C)=O)C2` it was -6.78%; in that of `CCc1[nH]c2c(CNC(=O)C3CCN(C)C3)cc(C)cc2c1C` (configuration not stated), -8.68%.

`COc1cccc(CCC(=O)Nc2ccn(C)n2)c1OC`: the cytotoxicity at 70.5 h is -10%. The same measure for `Cc1cc(CN2CCCN(c3ccc(C#N)cc3)CC2)no1`: -7.74%; for `COc1cccc2c1OCC(CNC(=O)Cn1ccnc1C)C2` (configuration not stated): -0.227%. In the case of `O=C(Nc1cc(C2CCOCC2)[nH]n1)c1cscn1` it was -7.61%; in that of `CSc1ccc(CN2CCCC3(CNC(=O)c4ccccc4O3)C2)cc1` (configuration not stated), 2.19%. With `CN1CC(=O)N(c2ccsc2)CC12CCN(Cc1cnn(C)c1)C2` (configuration not stated), the cytotoxicity at 70.5 h is -0.306%. The same measure for `CCNC(c1cccnc1)c1cc(C)cc(C)c1` (configuration not stated): 2.24%; for `Cc1nn(C)c2nc(N(Cc3ccccc3)CC3CCCO3)sc12` (configuration not stated): -11%; for `Cc1noc(C)c1-c1cccc(CC2CCN(C(=O)c3cc[nH]n3)C2)n1` (configuration not stated): -18%. In the case of `COc1cccc(OCc2nnc3n2N=C(C(C)(C)C)CS3)c1` it was -8.92%; in that of `Cc1ncc(S(C)(=O)=O)c(N(C)CCCc2cnn(C)c2)n1`, -3.73%. The same measure for `CCN(CC)C(=O)[C@@H]1C[C@@H](N)CN1c1nc(N2CCCC2)nc(C)c1C`: 25.5%.

`Cc1cnc(CN2CCC(N(C)Cc3nnc(C)n3C)C2)cn1` (configuration not stated): the cytotoxicity at 70.5 h is -0.164%. In the case of `CCc1cnc(N)nc1NCCCn1nc(C)nc1C` it was -9.39%; in that of `COc1ccccc1OC1(C(=O)O)CCN(c2cnccn2)CC1`, 47.4%; in that of `CN(Cc1ccon1)c1nc(-c2ccccn2)nc2c1CCNCC2`, 12.3%. In the case of `COc1ccc(C)cc1C(C)NC(=O)Cn1ccc(=O)n(C)c1=O` (configuration not stated) it was -1.39%; in that of `COc1ccc(CNC2CCc3ncnn3C2)cc1OCC1CC1` (configuration not stated), -14.4%. In the case of `CCc1nnc(CN(C)C[C@@H]2CCCN3CCCC[C@H]23)o1` it was -3.62%; in that of `NCCc1cccc(CN2CCN(c3ccccc3)C(=O)C2)c1`, -9.38%. On to `C[C@H]1C[C@H]2CN(C(=O)c3ccncn3)CC[C@@H]2O1`, for which the cytotoxicity at 70.5 h was -19.6%.

For the compound `Fc1ccc2c(c1)CCC2NCc1ccc(N2CCOCC2)cc1` (configuration not stated), the cytotoxicity at 70.5 h was found to be 7.55%.

Regarding `CN1C[C@@H](O)[C@]2(CCN(C(=O)c3ccccc3)C2)S1(=O)=O`, the cytotoxicity at 70.5 h is -7.54%. In the case of `COCCc1noc(CN2CCCCC2Cn2nc(C)cc2C)n1` (configuration not stated) it was -1.86%. In the case of `NC1CCCN(C(=O)c2csc(-c3ccc(C(F)(F)F)cc3)n2)CC1` (configuration not stated), the cytotoxicity at 70.5 h came to 36.2%. In the case of `CCCC(C#N)NC(=O)c1cc(Br)c2c(c1)OCCO2` (configuration not stated) it was -11.4%; in that of `O=C(NC[C@@H]1CCCO1)c1cccnc1N1CCCC1c1ccccn1` (some centres not stated), -3.08%; in that of `O=S(=O)(NCC(c1ccsc1)N1CCCCCC1)c1cccs1` (configuration not stated), -3.34%. In the case of `COCCC(=O)N1CC2(CCN(Cc3ccccc3Cl)CC2)C1` it was 12.5%; in that of `Cn1cc(CN2CCO[C@@H]3CN(C4CCCC4)C[C@@H]3C2)cn1`, 1.26%. The same measure for `CNc1nc(C(=O)N2C[C@H]3CC[C@@H]2CN(S(C)(=O)=O)C3)cs1`: 12%. Turning to `O=C(c1ccncc1F)N1CCc2ncnc(C3CC3)c2CC1`, the cytotoxicity at 70.5 h was -1.77%. The same measure for `N#Cc1c(Cl)nsc1NCc1cccnc1OC1CCCC1`: -94.1%; for `CN1CCCC1c1ccnc(-c2ccccc2)n1` (configuration not stated): -2.81%. On to `Cn1c(CS(=O)(=O)Cc2cccc(Cl)c2)cc(=O)n(C)c1=O`, for which the cytotoxicity at 70.5 h was -4.54%. The same measure for `Cc1cnn(CC2CCN(CC(O)COc3ccc(F)cc3)CC2)c1` (configuration not stated): 26.5%. Consider `CC(C)c1nc2c(n1C)CCN(CCS(=O)(=O)c1ccccc1)C2`, for which the cytotoxicity at 70.5 h was -12.4%. In the case of `CC(C)CCN1CC2(CCN(C(=O)C3(C)CC3)CC2)OC1=O` it was -0.562%; in that of `CC(C)(CN1CCC2(CCCNC2)C1)N1CCOCC1` (configuration not stated), 8.57%. The same measure for `CCCn1c(C)c(CC(=O)NC)c2c1CC(C)(C)CC2=O`: -6.96%. `O=C(NCc1ccc(-n2cncn2)nc1)c1cc(Cl)ccn1`: the cytotoxicity at 70.5 h turned out to be 12.5%. In the case of `O=S(=O)(NCc1cccnc1OC1CCCC1)N1CCCCC1` it was 0.259%; in that of `O=C(Cc1ccc2c(c1)CCO2)N1CCN(c2nccs2)CC1`, -2.11%; in that of `COc1ccc(OC)c(C2CCN(C3CCN(C(C)=O)CC3)C2)c1` (configuration not stated), 2.82%. The same measure for `CC(C(=O)N1CCOCC1)n1cncn1` (configuration not stated): -4.26%.

Regarding `CC(C)n1cnnc1CN(C)C(=O)C1CCCN(CC(N)=O)C1` (configuration not stated), the cytotoxicity at 70.5 h is -10.5%. In the case of `COCCN1C[C@@H]2[C@@H](OC)CCN(Cc3ccsc3)[C@@H]2C1` it was -2.68%; in that of `Cc1ccc(-c2noc(Cn3nc(C(N)=O)ccc3=O)n2)cc1`, -8.12%. On to `CC(C)(C)n1cc(C2=CCN(CCc3ccccc3)CC2)cn1`, for which the cytotoxicity at 70.5 h was -3.25%.

Take `Cc1ccc(C(=O)Oc2cc(=O)n3cccc(C)c3n2)cc1`: the cytotoxicity at 70.5 h was 15.3%. In the case of `COc1cc(N2CCCC(c3nccn3Cc3cccnc3)C2)ncn1` (configuration not stated) it was -14.5%; in that of `O=C(c1c[nH]c(=O)[nH]c1=O)N1CCCC(c2cnccn2)C1` (configuration not stated), -2.78%. With `Cn1cncc1-c1nnc([C@H]2CCN(Cc3ccc(F)c(F)c3)C2)o1`, the cytotoxicity at 70.5 h was -0.644%. The same measure for `CC(C)[C@@H]1CN(CCCOc2ccc(F)cc2)C[C@H]1NS(C)(=O)=O`: -8.14%; for `Cc1n[nH]c(C)c1NC(=O)Nc1cccnc1N1CCCC1`: 12.8%. Consider `Cc1ccc(C)c(OC2CCN(C(=O)c3ccc(O)nc3)CC2)c1`, for which the cytotoxicity at 70.5 h was 2.43%. Turning to `CN1CCN(C[C@@H]2OC[C@H]3CN(Cc4cccc(F)c4)CC[C@H]32)CC1`, the cytotoxicity at 70.5 h turned out to be 2.68%. Regarding `CNC(=O)COc1ccc(CNCc2c(C)nn(C)c2N(C)C)cc1`, the cytotoxicity at 70.5 h is -0.911%.

Take `CCN(CC)CCc1nc2c([nH]1)CC(c1ccc(Cl)cc1)CNC2=O` (configuration not stated): the cytotoxicity at 70.5 h was -3.81%. In the case of `CCOCC1CN(S(=O)(=O)N(C)C)Cc2cnn(CC)c21` (configuration not stated), the cytotoxicity at 70.5 h was -8.84%. The same measure for `CN1CCOC(CNC(=O)C2(c3ccccc3)CCC2)C1` (configuration not stated): -5.1%; for `CN(Cc1ccsc1)C(=O)c1n[nH]c(N)c1-c1ccccc1`: -1.37%; for `CC(C)(C)c1ncc(C(=O)NCCNc2ncccn2)s1`: -4.56%.

As for `COc1cc(OC)c(C2SCC(=O)Nc3n[nH]cc32)cc1OC` (configuration not stated), the cytotoxicity at 70.5 h was -1.01%.

Regarding `O=C(c1ccccc1)C1CCN(C(=O)CC2COCCN2)CC1` (configuration not stated), the cytotoxicity at 70.5 h is 1.52%. On to `Cc1noc(C)c1CNC(C)c1ccc(S(=O)(=O)N(C)C)cc1` (configuration not stated), for which the cytotoxicity at 70.5 h was -2.42%.

Consider `O=C1N(Cc2ccc(F)c(F)c2)CCCC12CCN(C1CCCC1)C2` (configuration not stated), for which the cytotoxicity at 70.5 h was -2.62%.

Take `CCN1C(=O)CC(c2cnn(C)c2)C12CCN(C(=O)C1CC=CC1)CC2` (configuration not stated): the cytotoxicity at 70.5 h was found to be 0.244%. For `Fc1cnc(N2CCC3(CCCN(c4nncs4)C3)C2)nc1` (configuration not stated), the cytotoxicity at 70.5 h is -6.18%. With `Cc1cccnc1NCCNc1cc(C(C)C)nc2ccnn12`, the cytotoxicity at 70.5 h is -11.6%. The same measure for `CCN(C)C1COC2(CCN(C(=O)c3cccc(Cl)c3)CC2)C1` (configuration not stated): -6.18%.

With `CCC1CN(C)c2ccccc2CN1CCn1cncn1` (configuration not stated), the cytotoxicity at 70.5 h is -9.88%.

Consider `CCc1nc(CN2CCCN(C(=O)Cc3cccs3)CC2)cs1`, for which the cytotoxicity at 70.5 h was -6.45%. In the case of `CN(Cc1cccc2ncccc12)C(=O)CCn1ccc(=O)[nH]c1=O` it was -1.13%; in that of `COc1ccc(C(C)NC(=O)Nc2nnc(C)s2)c(OC)c1` (configuration not stated), -4.87%.

With `c1ccc(-n2nnnc2NCc2ccc3c(c2)OCO3)cc1`, the cytotoxicity at 70.5 h was determined as 4.41%. `O=C(CSC1=NS(=O)(=O)c2cc(F)ccc2N1)Nc1ccc(Cl)cc1`: the cytotoxicity at 70.5 h turned out to be 22.3%.

Consider `O=C(c1cccc(CNCC2CNc3ccnn3C2)c1)N1CCCC1` (configuration not stated), for which the cytotoxicity at 70.5 h is 16.7%. In the case of `Cc1nc(C(=O)N2CCCN(Cc3cnn(C)c3)CC2)ccc1C#N` it was -8.5%; in that of `CCOC(=O)NCC(=O)Nc1nc2ccccc2n1C(C)(C)C`, 5.06%; in that of `CCn1ccnc1CN1CCCC(CO)(Cc2cccc(Cl)c2)C1` (configuration not stated), -1.73%.

On to `Cc1csc([C@H]2C[C@H]3CN(Cc4cc(C)on4)CC[C@@H]3O2)n1`, for which the cytotoxicity at 70.5 h is -7.64%. In the case of `Cc1nccn1CCN(C)C(=O)c1cn(-c2ccccc2)nn1`, the cytotoxicity at 70.5 h was 33.5%. For the compound `CN(C)C(=O)N1CCC(C(=O)NCCNc2ncccc2C#N)CC1`, the cytotoxicity at 70.5 h was -4.63%. As for `N#Cc1ccc(N2CCC3(CC2)CC(Oc2cccnc2)CO3)cc1` (configuration not stated), the cytotoxicity at 70.5 h was 9.42%. In the case of `Cc1noc([C@@H]2CCO[C@@H]3CCN(Cc4nccs4)C[C@@H]32)n1` it was 9.78%; in that of `COc1cccn(CC(=O)N(C)CCC2CCOCC2)c1=O`, 25%. In the case of `CCS(=O)(=O)N1CC[C@@H]2[C@@H](CCC(=O)N2CCc2ccccc2)C1` it was 1.58%; in that of `O=C(C1CC1)N1CC[C@H]2C(=O)N(c3ccsc3)CCO[C@H]2C1`, -11.7%. As for `CCCc1nc(CN(CC)C(=O)c2ccc3[nH]cnc3c2)no1`, the cytotoxicity at 70.5 h amounted to 23.9%. In the case of `O=C(c1cccnc1N1CCCCC1)N1CCCC(n2ccnc2)C1` (configuration not stated) it was 1.48%.

The record behind these values is ChEMBL document CHEMBL3507680, “University of Dundee, Gates Library screen for HepG2 cell viability”.
